Columns and labels:
[1] = test system: sleeping time induced by pentobarbital; assay: Effect on the Sleeping Time Induced by Pentobarbital; assay type: in vivo, male mice Swiss-Nos; details: mouse, 25 mg/kg i.p. 30 minutes before 40 mg/kg i.p. sodium pentobarbital; increase vs control group
Description: Effect on the Sleeping Time Induced by Pentobarbital The tests were carried out on male mice Swiss-Nos (Nossan, Correzzana, Milano) weighing 20-24 g, on an empty stomach for 18 hrs, according to the method described by R. Turner (Screening Methods in Pharmacology, Acad. Press, pg 70, 1965). […] The narcosis start was considered from the moment when the animal, lying on its back, lost its straightening reflex. The narcosis end was considered from the moment when the animal recovered such reflex. The carrier or the compounds under examination were administered by intraperitoneal route at the dose 25 mg/kg, 30 minutes before the pentobarbital administration. The resulting data are expressed as sleeping time increase percent in the treated animal group in comparison to the control animal group.

[2] = Evaluation of the Lethal Dose50 (LD50), acute toxicity; details: in vivo, ip; mouse, 14 days observation, probit method
Description: Evaluation of the Lethal Dose50 (LD50)
The tests were carried out on Swiss Nos (Nossan; Correzzana, Milano) mice weighing 18-20 g each. The animals, divided into groups of 10 animals each (5M+5F), were on an empty stomach for 18 hrs, with water ad libitum, and kept in cages with a grid floor. The compounds (I) were dissolved in water or suspended in 0.5% carboxymethylcellulose and intraperitoneally administered to the animals (10 ml/kg). The number of mice which died within the following 6 hours was recorded. Upon the expiry of the sixth hour, the animals were allowed to eat up to the end of the experimentation which lasted 14 days. During this period all the toxic symptoms and the mortality occurring were noted.
The animals which died during the test period and those which were sacrificed at the end of the same, underwent autopsy for a macroscopic examination of their main organs. The experimental data were statistically compared with the X^2 method and LD50 was extrapolated by the `probit` method.

[3] = test system: histamine-induced mortality; assay: Effect on the Mortality Induced by Histamine; assay type: in vivo, male albino guinea pigs (Dunkin-Hartley); details: Cavia porcellus, po; guinea pig, p.o. 60 minutes before 1,25 mg/kg i.v. histamine dihydrochloride; amount inhibiting 50% of mortality
Description: Effect on the Mortality Induced by Histamine
The method described by Romer D. et al. (Med. Welt, 17, 791, 1966) was followed and the tests were carried out on male albino guinea pigs (Dunkin-Hartley), weighing 350-450 g, which were kept in cages with a grid floor, on an empty stomach for 24 hrs with water ad libitum.
The compounds under examination were dissolved in 0.5% carboxy methylcellulose and orally administered to the animals 60 minutes before that the same animals were intravenously treated with 1,25 mg/kg of histamine dihydrochloride dissolved in saline solution. In the control animals, treated with carboxymethyl cellulose, the histamine dihydrochloride solution, intravenously administered, induced a 100% mortality.
It was evaluated ED50 which corresponds to the amount of the compound able to inhibit 50% of the mortality induced by histamine: the estimation of ED50 was carried out applying the `probit` method (Finney D. J., Statistical methods in biological assay, pg 512, 1957).

| Structure (SMILES) | Increase of sleeping time induced by pentobarbital [1] | LD50 at 336 h [2] | ED50 [3] |
| --- | --- | --- | --- |
| CC(C)(C)c1ccc(C(O)CCCN2CCC(C(O)(c3ccccc3)c3ccccc3)CC2)cc1 (stereo not drawn) [Terfenadine, reference compound] | 44% |  |  |
| CN(C)CCNc1nc2cccnc2n1Cc1ccccc1.Cl.Cl [Example 2, 3-Benzyl-2-(2-dimethylaminoethylamino)-3H-imidazo[4,5-b]pyridine dihydrochloride] | 76% | > 100 mg/kg |  |
| CN1CCN(c2nc3cccnc3n2Cc2ccccc2)CC1.O=C(O)/C=C/C(=O)O [Example 1, 3-Benzyl-2-(4-methylpiperazin-1-yl)-3H-imidazo[4,5-b]pyridine fumarate] | 183% | > 100 mg/kg | 0.033 mg/kg |

From patent US5023256A, “Pharmacologically active aminoimidazopyridines” (Dompe Farmaceutici S.p.A., priority 1989, dated 1991)
